Measured values as given in patent US8394929B2, “Nogo receptor-mediated blockade of axonal growth” (Yale University, priority 2000, dated 2013).
Like-named read-outs stand apart in the source and are kept apart here.

Test system: CNS myelin induced neurite outgrowth inhibition
Assay: Blockade of CNS myelin induced neurite outgrowth inhibition in chick DRG neurons
Format: cell-based
Procedure: To determine the antagonistic activity of Peptide 140 against CNS myelin, the above synthetic peptide was added approximately 10 min before application of CNS myelin. 30 min later, cultures were fixed and growth cone collapse was assessed following staining with rhodamine-phalloidin. For neurite outgrowth assays, plastic chamber slide were coated with 100 μg ml^−1 poly-L-lysine, washed, and dried. 3 μl drops of PBS containing CNS myelin were spotted and dried. Slides were then rinsed and coated with 10 μg ml fs24^−1 laminin before addition of dissociated E12 chick DRGs. Peptide 140, or the scrambled version of Peptide 140, was added at the time of cell plating. Cultures were grown for 5-7 h after which neurite outgrowth was assessed.
Although the role of the GPI anchor may be to regulate NgR cellular compartmentalization, another possible role for the GPI linkage is to provide a NgR cleavage site. Cleaving NgR could serve to affect hNogo-A (1055-1120) signaling by rendering a neuron insensitive to hNogo-A (1055-1120) and by releasing soluble NgR that could then act on adjacent cells to modulate hNogo-A (1055-1120) signaling. To determine if soluble mNgR modulates hNogo-A (1055-1120)-dependent inhibition, a soluble mNgR was generated by inserting a truncated cDNA encoding mNgR residues 1-348 in frame with a myc-His carboxy tag into pcDNA3.1. The resulting plasmid expressing mNgREcto was transfected into HEK293T cells, and conditioned media containing mNgREcto protein was collected. To test the effect of mNgREcto on Nogo signaling, E13 dissociated DRGs were plated in the presence of hNogo-A (1055-1120) or myelin. The inhibitors were presented in either soluble or substrate-bound forms. For neurite outgrowth assays on hNogo-A (1055-1120) or myelin substrates, Permanox chamber slides were coated with 100μ, fs24 g ml^−1 poly-L-Lysine, washed, and then 3-μl drops of phosphate-buffered saline (hereinafter “PBS”) containing 0, 10, 50, or 150 ng of GST-hNogo-A (1055-1120) or myelin were spotted and dried. GST-hNogo-A (1055-1120) and myelin were prepared as previously described (GrandPre et al., supra; Fournier et al., J. Cell Biol. 149:411-421, 2000). After three PBS washes, slides were coated with 10 μg ml^−1 laminin. Laminin was then aspirated and dissociated E13 chick DRG neurons were added. After 6-8 hr of outgrowth, cultures were fixed and neurite outgrowth lengths were assessed. For blockade experiments with NgREcto, spots were incubated with HEK293T cell conditioned media or NgREcto-transfected-HEK293T cell conditioned media following for 1 hr following the laminin coating step and before the addition of dissociated neurons. […] Thus, soluble fragments of NgR might serve physiologically or pharmacologically to reduce GST-hNogo-A (1055-1120) inhibition of axonal regeneration.

Molecule | blockade of CNS myelin induced neurite outgrowth inhibition (in words) | concentration at which maximal activity is obtained (bound CNS myelin) | neurite outgrowth on a 20 ng spot of myelin (as compared with control outgrowth) (following treatment with Peptide 140, E12 chick DRG) [%] | blockade of CNS myelin induced neurite outgrowth inhibition (in words) (listed as 2-41 fragment) | blockade of CNS myelin induced neurite outgrowth inhibition (in words) (listed as NgR ectodomain protein) | blockade of CNS myelin induced neurite outgrowth inhibition (in words) (listed as NgREcto) | blockade of CNS myelin induced neurite outgrowth inhibition (in words) (listed as mNgR ectodomain protein)
Peptide 140: synthetic peptide of amino acids #1055-1094 of the human NogoA protein, acetylated and amidated at the termini (Ac-RIYKGVIQAIQKSDEGHPFRAYLESEVAISEELVQKYSNS-NH2; UniProt Q9NQC3 1055-1094, looked up, fragment) | partial neutralization | approximately 250 nM | 65 |  |  |  | 
Pep2-41: 2-41 fragment of the 66 amino acid region of Nogo, acetylated and amidated at the termini (Ac-RIYKGVIQAIQKSDEGHPFRAYLESEVAISEELVQKYSNS-NH2) | can reverse the inhibition of neurite outgrowth |  |  | blocks |  |  | 
NgR-ecto: secreted fragment of amino acid residues 1-348 of the murine NgR, in HEK293T conditioned medium (protein, left off: small tags and cut ends, secreted fragment of amino acid residues 1-348 of the murine NgR, in HEK293T conditioned medium) CPGACVCYNEPKVTTSCPQQGLQAVPTGIPASSQRIFLHGNRISHVPAASFQSCRNLTILWLHSNALARIDAAAFTGLTLLEQLDLSDNAQLHVVDPTTFHGLGHLHTLHLDRCGLRELGPGLFRGLAALQYLYLQDNNLQALPDNTFRDLGNLTHLFLHGNRIPSVPEHAFRGLHSLDRLLLHQNHVARVHPHAFRDLGRLMTLYLFANNLSMLPAEVLMPLRSLQYLRLNDNPWVCDCRARPLWAWLQKFRGSSSEVPCNLPQRLADRDLKRLAASDLEGCAVASGPFRPIQTSQLTDEELLSLPKCCQPDAADKASVLE | blocks the ability of CNS myelin to inhibit axonal outgrowth |  |  |  | blocked | partially reversed | blocked
